Data as given in patent publication US20250144067A1, “PERSONALIZED STARVATION THERAPY FOR CANCER” (Faeth Therapeutics, Inc., priority 2021, published 2025).
Structures can show the parent of a compound that is named as a salt. Where two headings read alike, the source gives them in different places.

Columns and labels:
[1] = system: NCI-H292 lung cancer cells; assay: FDA drug screening, complete media vs cholesterol-free media without statin (TABLE 1); type: cell-based, human
[2] = system: NCI-H292 lung cancer cells; assay: FDA drug screening, complete media vs cholesterol-free media with simvastatin (TABLE 2); type: cell-based, human
[3] = Complete minus Cholesterol-free, greater than 0 enhanced anti-cancer activity, about 0 neutral, below 0 antagonist
[4] = NCI-H292 cells, FDA drug library screen, cholesterol-free media without statin
[5] = NCI-H292 cells, FDA drug library screen, complete media
[6] = NCI-H292 cells, cholesterol-free media with simvastatin 0.04 μM, cell growth value in FDA drug screen
[7] = complete media minus cholesterol-free media + simvastatin, >0 enhanced anti-cancer activity, about 0 neutral, <0 antagonist
[8] = NCI-H292 cells, cholesterol-free media without statin
[9] = complete vs cholesterol-free media, greater than 0 enhanced anti-cancer activity, about 0 neutral, below 0 antagonists
[10] = NCI-H292 cells, FDA drug library screen, cholesterol-free media with simvastatin 0.04 μM
[11] = NCI-H292 cells, cholesterol-free media without statin, FDA drug library screen
[12] = NCI-H292 cells, complete media, FDA drug library screen
[13] = complete vs cholesterol-free media, >0 enhanced anti-cancer activity, about 0 neutral, <0 antagonist
[14] = NCI-H292 cells, cholesterol-free media with simvastatin 0.04 μM, FDA drug library screen (TABLE 2)
[15] = NCI-H292 cells, complete media, FDA drug library screen (TABLE 2)
[16] = complete media minus cholesterol-free media + simvastatin (0.04 μM), >0 enhanced anti-cancer activity, about 0 neutral, <0 antagonist
[17] = complete media vs cholesterol-free media + simvastatin (0.04 μM), >0 enhanced anti-cancer activity, about 0 neutral, <0 antagonist
[18] = Complete minus Cholesterol-free, >0 enhanced anti-cancer activity, about 0 neutral, <0 antagonist
[19] = NCI-H292 cells, complete media, cell growth value in FDA drug screen

SMILES: O=C(O)c1ccccc1 [Benzoic acid]
- Cholesterol-free [1]: 1.119
- Complete [1]: 1.063
- Difference [1]: −0.06
- Cholesterol-free media + simvastatin (0.04 μM) [2]: 1.277
- Difference [2]: −0.11

SMILES: NS(=O)(=O)c1cc2c(cc1Cl)N=C(CSCc1ccccc1)NS2(=O)=O [Benzthiazide]
- Difference [1, 3]: −0.08
- Cholesterol-free [1, 4]: 0.9561
- Complete [1, 5]: 0.8751
- Cholesterol-free media + simvastatin (0.04 μM) [2, 6]: 1.107
- Difference [2, 7]: 0.04

SMILES: CN(C)CCCOc1nn(Cc2ccccc2)c2ccccc12 [Benzydamine (hydrochloride)]
- Cholesterol-free [1, 8]: 1.444
- Complete ([1]; NCI-H292 cells, complete media): 1.002
- Difference [1, 9]: −0.44
- Cholesterol-free media + simvastatin (0.04 μM) [2, 10]: 0.5074
- Complete Media [2, 5]: 1.108
- Difference [2, 7]: 0.60

SMILES: OCc1ccccc1 [Benzyl alcohol]
- Difference [1, 3]: −0.14
- Cholesterol-free [1, 4]: 1.033
- Complete [1, 5]: 0.8945
- Cholesterol-free media + simvastatin (0.04 μM) [2, 10]: 0.8765
- Complete Media [2, 5]: 1.062
- Difference [2, 7]: 0.19

SMILES: O=C(OCc1ccccc1)c1ccccc1 [Benzyl benzoate]
- Cholesterol-free [1, 11]: 0.6319
- Complete [1, 12]: 1.132
- Difference [1, 13]: 0.50
- Cholesterol-free media + simvastatin (0.04 μM) [2, 14]: 0.8319
- Complete Media [2, 15]: 0.7979
- Difference [2, 16]: −0.03

SMILES: O=C(O)CCCN1CCC(O[C@@H](c2ccc(Cl)cc2)c2ccccn2)CC1 [Bepotastine (besilate)]
- Cholesterol-free [1, 8]: 1.237
- Complete ([1]; NCI-H292 cells, complete media): 0.8985
- Difference [1, 9]: −0.34
- Cholesterol-free media + simvastatin (0.04 μM) ([2]; NCI-H292 cells, FDA library drug in cholesterol-free media with simvastatin 0.04 μM): 1.245
- Complete Media ([2]; NCI-H292 cells, FDA library drug in complete media): 0.8639
- Difference [2, 17]: −0.38

SMILES: O=C(O)CCCN1CCC(O[C@@H](c2ccc(Cl)cc2)c2ccccn2)CC1 [Bepotastine]
- Cholesterol-free [1, 11]: 0.9809
- Complete [1, 12]: 1.256
- Difference [1, 13]: 0.28
- Cholesterol-free media + simvastatin (0.04 μM) ([2]; NCI-H292 cells, drug in cholesterol-free media with simvastatin 0.04 μM): 0.9667
- Complete Media ([2]; NCI-H292 cells, drug in complete media): 0.7639
- Difference [2, 17]: −0.20

SMILES: CC(C)COCC(CN(Cc1ccccc1)c1ccccc1)N1CCCC1 (stereo not drawn) [Bepridil (hydrochloride hydrate)]
- Difference [1, 18]: −0.25
- Cholesterol-free [1, 8]: 1.151
- Complete ([1]; NCI-H292 cells, complete media): 0.8961
- Cholesterol-free media + simvastatin (0.04 μM) [2, 10]: 1.501
- Complete Media [2, 5]: 1.762
- Difference [2, 7]: 0.26

SMILES: CC(C)COCC(CN(Cc1ccccc1)c1ccccc1)N1CCCC1 (stereo not drawn) [Bepridil hydrochloride]
- Difference [1, 18]: −0.19
- Cholesterol-free [1, 8]: 1.009
- Complete ([1]; NCI-H292 cells, complete media): 0.8157
- Cholesterol-free media + simvastatin (0.04 μM) [2, 10]: 1.312
- Complete Media [2, 5]: 1.584
- Difference [2, 7]: 0.27

SMILES: COc1cc2c3cc1Oc1c(OC)c(OC)cc4c1[C@@H](Cc1ccc(O)c(c1)Oc1ccc(cc1)C[C@@H]3N(C)CC2)N(C)CC4 [Berbamine (dihydrochloride)]
- Cholesterol-free [1, 8]: 1.782
- Complete ([1]; NCI-H292 cells, complete media): 1.401
- Difference ([1]; complete vs cholesterol-free media, […]): −0.38
- Cholesterol-free media + simvastatin (0.04 μM) [2, 10]: 0.2857
- Complete Media [2, 5]: 1.04
- Difference ([2]; complete media minus cholesterol-free media + simvastatin, […]): 0.75

SMILES: COc1ccc2cc3[n+](cc2c1OC)CCc1cc2c(cc1-3)OCO2.O.[Cl-] [Berberine (chloride hydrate)]
- Difference [1, 3]: −0.18
- Cholesterol-free [1, 4]: 0.263
- Complete [1, 5]: 0.07956
- Cholesterol-free media + simvastatin (0.04 μM) [2, 14]: 0.3813
- Complete Media [2, 15]: 0.3495
- Difference [2, 16]: −0.03

SMILES: COc1ccc2cc3[n+](cc2c1OC)CCc1cc2c(cc1-3)OCO2.[Cl-] [Berberine (chloride)]
- Difference [1, 3]: −0.09
- Cholesterol-free [1, 4]: 0.2752
- Complete [1, 5]: 0.1873
- Cholesterol-free media + simvastatin (0.04 μM) [2, 6]: 0.3544
- Complete Media [2, 19]: 0.3946
- Difference [2, 7]: 0.04

SMILES: COc1c(O)cc2c(c1O)[C@@H]1O[C@H](CO)[C@@H](O)[C@H](O)[C@H]1OC2=O [Bergenin]
- Difference [1, 18]: −0.21
- Cholesterol-free [1, 8]: 0.9949
- Complete ([1]; NCI-H292 cells, complete media): 0.7827
- Cholesterol-free media + simvastatin (0.04 μM) [2, 6]: 0.6754
- Complete Media [2, 19]: 0.7494
- Difference [2, 7]: 0.07

SMILES: Nc1ncc2ncn(CC3(OCP(=O)(O)O)CC3)c2n1 [Besifovir]
- Cholesterol-free [1, 8]: 1.23
- Complete ([1]; NCI-H292 cells, complete media): 0.9121
- Difference [1, 9]: −0.32
- Cholesterol-free media + simvastatin (0.04 μM) [2, 6]: 0.9124
- Complete Media [2, 19]: 0.9846
- Difference [2, 7]: 0.07

SMILES: CC(C)C[C@H](NC(=O)[C@@H](O)[C@H](N)Cc1ccccc1)C(=O)O [Bestatin (hydrochloride)]
- Cholesterol-free [1, 8]: 1.217
- Complete ([1]; NCI-H292 cells, complete media): 0.9083
- Difference [1, 9]: −0.31
- Cholesterol-free media + simvastatin (0.04 μM) [2, 10]: 1.299
- Difference [2, 17]: −0.15
